Reference: patent US9771430B2, “Method of treating a metabolic disorder induced by obesity in a subject in need thereof by administering MK2/3 inhibitors” (THE TRUSTEES OF COLUMBIA UNIVERSITY IN THE CITY OF NEW YORK, priority 2011, dated 2017)

Experiments:
[1] = system: CREB; assay: PKA-mediated phosphorylation of CREB in hepatocytes; assay type: cell-based, mouse
Experimental: (§1) Immunoblot, immunoprecipitation, and immunostaining assays were performed as described (18). CRTC2, pCREB (Ser133), CREB, pAKT (Thr308), AKT, tubulin, HA, and FLAG antibodies were previously described (18). The antibodies anti-InsP3R1 (A302-158A) and InsP3R3 (A302-160A) were purchased from Bethyl Laboratories, anti-InsP3R2 (ab77838) from Abcam, anti-Calcineurin (610260) from BD Biosciences, anti-GRP78 (ADI-SPA-826-F) from Enzo Life Sciences, anti-phospho-PKA substrate (RRXS/T, 9624), anti-phospho-AKT substrate (RXXS/T, 9614) and CRTC2 (pS171, 2892) from Cell Signaling. CRTC2 (pS275) antibody was employed as described (19).

[2] = system: CaMKII; assay type: cell-based, mouse
Experimental: FIG. 1A. CaMKII enzyme activity was assayed in triplicate wells of primary mouse HCs stimulated with 100 nM glucagon (Gluc) or vehicle control (Veh) for the indicated times (*P<0.05 and **P<0.01 vs. Veh; mean±S.E.M.). FIGS. 1B-1J. Extracts of HCs or liver were probed for phospho-CaMKII, total CaMKII, and β-actin by immunoblot assay. FIG. 1B. HCs were incubated with […] glucagon for the indicated times; FIG. 1C. Glucagon was added to HCs that were pre-treated for 1 h with vehicle control (Veh) or 5 μM BAPTA-AM; FIG. 1D. Glucagon was added to HCs that were pre-treated with 0.5 μM xestospongin (XesC) or to HCs from Ip3r1fl/fl mice transduced with adeno-LacZ control or adeno-Cre (bar graph=Ip3r1 mRNA levels); FIG. 1E. Glucagon was added to HCs that were pre-treated for 1 h with vehicle control (Veh) or 10 μM H89. FIG. 1F. […] FIGS. 1G-1J. In vivo experiments. In FIG. 1G, mice were treated for 30 min with 200 μg kg−1 body weight of glucagon i.p., and in FIG. 1H, mice were pre-treated with 10 pmol g−1 xestospongin C or vehicle control i.p. 4 days prior to glucagon treatment. In FIGS. 1I-1J, mice were fed ad libitum or fasted for 12 h, or fasted for 12 h and then re-fed for 4 h.
Total RNA was extracted from hepatocytes using the RNeasy kit (Qiagen). cDNA was synthesized from 2 μg total RNA using oligo (dT) and Superscript II (Invitrogen). Real-time qPCR analysis and western blotting were performed as previously described (Timmins et al., 2009). Nuclear extraction from liver was performed using the Nuclear Extraction Kit from Panomics according to the manufacturer's instructions.
(§2) Immunoblot and RT-qPCR assays were performed as previously described (Timmins et al., 2009). Total RNA was extracted from HCs using the RNeasy kit (Qiagen). cDNA was synthesized from 2 μg total RNA using oligo (dT) and Superscript II (Invitrogen). Nuclear extraction from liver was performed using the Nuclear Extraction Kit from Panomics according to the manufacturer's instructions.

[3] = system: CRTC2; assay: CRTC2 dephosphorylation and nuclear translocation in primary hepatocytes; assay type: cell-based, mouse; settings: inhibitor pre-treatment 1 h, glucagon 100 nM
Experimental: (§3) HEK293T (ATCC) cells were cultured in DMEM containing 10% FBS (HyClone), […] penicillin-streptomycin. Mouse primary hepatocytes were isolated and cultured as previously described (18). Cellular fractionation studies were conducted as previously reported (18). For reporter studies, Ad-CRE-luc infected hepatocytes (1 pfu per cell) were exposed to glucagon (Gcg, 100 nM) for 2˜4 h. For cyclosporine A (CsA, 10 μM) or okadaic acid (OA, 100 nM) or cell permeable calcineurin autoinhibitory peptide (10 μM) or CN585 (100 μM) or Calyculin A (10 nM) or Xestospongin C (Xc, 2 μM) or H89 (30 μM) or BAPTA (50 μM) inhibition, hepatocytes were pre-treated with the inhibitors for one hour. Luciferase activities were normalized to β-galactosidase activity from adenoviral-encoded RSV β-gal. Calcineurin activity (test kit from Enzo Life Sciences) and cellular cAMP levels (test kit from Cayman Chemical Company) were measured according to manufacturer's instructions.
as §1

[4] = system: CRE-luciferase (luc) reporter; assay: CRE-luciferase reporter activity in primary hepatocytes; assay type: cell-based, mouse; settings: response to glucagon
Experimental: as §3

[5] = system: G6pc and Pck1 mRNA; assay: G6pc and Pck1 mRNA (RT-qPCR) in primary mouse hepatocytes; assay type: cell-based
Experimental: FIG. 32A-E. Related to FIG. 26—p38. FIG. 32A Mice were fed ad libitum or fasted for 12 h. Liver phospho-p38, total p38, p-MK2, total MK-2, and β-actin were assayed by immunoblot. FIG. 32B WT HCs were serum-depleted overnight and then incubated for 5 h with 100 nm glucagon in serum-free media with or without SB202190; or glucagon was added to HCs from P38a^fl/fl mice treated with adeno-LacZ (control) or adeno-Cre. RNA was assayed for G6pc and Pck1 mRNA (*P<0.05; mean±S.E.M.). FIG. 32C HCs from fasting WT and Camk2g^−/− mice were assayed for p-p38, total p38, and β-actin. FIG. 32D WT mice were injected i.p. with 12.5 mg kg^−1 body weight of p38 inhibitor (SB202190) or vehicle control. 12 h later, the mice were injected with an additional dose of SB202190 and fasted overnight. The livers were assayed for nuclear FoxO1, nucleophosmin, p-MK2, total MK-2, and β-actin. The correlation between nuclear FoxO1 and p-MK2 band intensities is shown in the graph. FIG. 32E Adeno-GFP-FoxO1-transduced HCs were serum-depleted overnight, and then incubated for 5 h in serum-free media with SB202190 or vehicle (Veh) control. FoxO1 localization was assessed by indirect immunofluorescence (Bar, 10 μm; *P<0.05; mean±S.E.M.).
FIGS. 53A-B. MK-2 regulates hepatic FoxO1 subcellular localization and hepatic G6Pc and Pck1. FIG. 53A. Adeno-GFP-FoxO1-transduced HCs were serum-depleted overnight, and then incubated for 30 min in serum-free media with 2 uM MK-2 inhibitor or vehicle (Veh) control. FoxO1 localization was assessed by indirect immunofluorescence (Bar, […]; *P<0.005; mean±S.E.M.). FIG. 53B WT HCs were serum-depleted overnight and then incubated for 5 h with 100 nm glucagon in serum-free media with or without MK-2 inhibitor. RNA was assayed for G6pc and Pck1 mRNA (*P<0.005; mean±S.E.M.). MK-2 Inhibitor is from Calbiochem (cat#475864): 2-(2-Quinolin-3-ylpyridin-4-yl)-1,5,6,7-tetrahydro-4H-pyrrolo-[3,2-c]pyridin-4-one.
FIG. 69. MK-2 inhibitor suppresses forskolin-induced Pck1 and G6Pc induction in primary hepatocytes. Primary hepatocytes from WT mice were serum-depleted overnight and then pre-treated with 300 nM MK-2 inhibitor (compound 28) or vehicle for 1 h. Cells were then treated with 2 μM forskolin in serum-free media with or without the inhibitor for 4 h. RNA was assayed for G6pc and Pck1 mRNA by RT-qPCR. *, P<0.0001.
Primary mouse HCs were isolated from 8- to 12-week-old mice as described previously (Matsumoto et al., 2002). For most experiments, the HCs were serum-depleted overnight by incubation in medium containing 0.5% fetal calf serum and were then incubated for 5 h in serum-free media, with individual treatments noted in the figure legends. HCs were transduced with adenoviral constructs 12 h after plating, and experiments were conducted 24 h after transduction. Transfections with WT, 7A- and 9A-Foxo1 were carried out using jetPEI™-hepatocyte DNA transfection reagent (Polyplus-transfection, Inc.) according to manufacturer's instructions.
as §2, with “instructions. […] Whether their origin is alternative splicing or post-translational modification remains to be determined.” for “instructions.”

[6] = system: FoxO1; assay: Nuclear FoxO1 in mouse liver (immunoblot of nuclear extracts); assay type: in vivo; settings: fasting mice, 12.5 mg kg−1 i.p., two doses
Experimental: FIGS. 24A-D. CaMKII regulates hepatic FoxO1 subcellular localization. FIG. 24A HCs from WT and Camk2g^−/− mice were transduced with an adenovirus expressing murine GFP-FoxO1 at an MOI of 2. Cells were serum-depleted overnight and then incubated for 5 h in serum-free media. FoxO1 subcellular localization was assessed by indirect immunofluorescence. Bar, 10 μm. Data are quantified in the right panel. (^#P<0.0005; mean±S.E.M.). […] Bar, 5 μm. FIG. 24C HCs were transduced with adeno-LacZ or CA-CaMKII and then adeno-GFP-FoxO1 as in FIG. 24B. After incubation in serum-depleted medium o.n. and then serum-free medium for 5 h, the cells were treated with 100 nM insulin for the indicated times. FoxO1 subcellular localization was quantified as in FIG. 24B (*P<0.005 vs. LacZ in each group; mean±S.E.M.).
FIG. 32A-E. Related to FIG. 26—p38. FIG. 32A Mice were fed ad libitum or fasted for 12 h. Liver phospho-p38, total p38, p-MK2, total MK-2, and β-actin were assayed by immunoblot. […] FoxO1 localization was assessed by indirect immunofluorescence (Bar, 10 μm; *P<0.05; mean±S.E.M.).
Immunoblot and RT-qPCR assays were performed as previously described (Timmins et al., 2009). […] Whether their origin is alternative splicing or post-translational modification remains to be determined.

[7] = system: FoxO1; assay: FoxO1 subcellular localization in primary mouse hepatocytes; assay type: cell-based; settings: HCs treated with glucagon
Experimental: FIG. 24A HCs from WT and Camk2g^−/− mice were transduced with an adenovirus expressing murine GFP-FoxO1 at an MOI of 2. Cells were serum-depleted overnight and then incubated for 5 h in serum-free media. FoxO1 subcellular localization was assessed by indirect immunofluorescence. Bar, 10 μm. Data are quantified in the right panel. (^#P<0.0005; mean±S.E.M.). FIG. 24B HCs were transduced with adenoviral vectors expressing LacZ, CA-CaMKII, or KD-CaMKII at an MOI of 20 and then transduced 4 h later with adeno-GFP-FoxO1, followed by fluorescence microscopy and quantification as in FIG. 24A (^#P<0.005 vs. LacZ; mean±S.E.M.). Bar, 5 μm. FIG. 24C HCs were transduced with adeno-LacZ or CA-CaMKII and then adeno-GFP-FoxO1 as in FIG. 24B. After incubation in serum-depleted medium o.n. and then serum-free medium for 5 h, the cells were treated with 100 nM insulin for the indicated times. FoxO1 subcellular localization was quantified as in FIG. 24B (*P<0.005 vs. LacZ in each group; mean±S.E.M.).
Primary hepatocytes from WT mice were transduced with adeno-LacZ (LacZ) or adeno-DN-MK2 (DN-MK2) at an MOI of 1. […]

[8] = system: JNK; settings: at 100 μM; cited from earlier work
[9] = target: p42 MAP kinase (Homo sapiens, UniProt P28482); settings: at 100 μM; cited from earlier work
Chain of p42 MAP kinase (P28482 whole entry): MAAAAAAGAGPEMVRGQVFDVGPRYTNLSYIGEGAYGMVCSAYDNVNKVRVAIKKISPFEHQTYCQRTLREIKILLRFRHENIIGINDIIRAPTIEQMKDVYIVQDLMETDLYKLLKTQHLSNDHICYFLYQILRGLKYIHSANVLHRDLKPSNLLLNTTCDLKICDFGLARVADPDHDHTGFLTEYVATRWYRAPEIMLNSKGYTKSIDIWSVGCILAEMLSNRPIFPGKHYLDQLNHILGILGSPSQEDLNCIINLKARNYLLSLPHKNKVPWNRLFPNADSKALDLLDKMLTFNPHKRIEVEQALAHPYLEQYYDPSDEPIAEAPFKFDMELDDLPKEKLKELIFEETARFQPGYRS

[10] = system: CaMKII; settings: WT Mφs, 4 h, 5 μM
Experimental: Immunoblots of pThr287-CaMKII in FIG. 15A WT, Insr−/−, and ob/obMφs±FC loading or oxLDL and FIG. 15B WT Mφs±4 h treatment with 5 μM U0126 ERK inhibitor.

[11] = system: calcineurin; assay: Calcineurin activity in primary hepatocytes; assay type: cell-based, mouse; settings: cells expressing wild-type InsP3R1
Experimental: as §3

[12] = system: cytosolic free calcium; assay: Calcium mobilization in primary hepatocytes (Fura-2 imaging); assay type: cell-based, mouse; settings: cells expressing wild-type InsP3R1
Experimental: Mouse primary hepatocytes were plated on glass coverslips and loaded with 5 μM Fura-2 acetoxymethyl ester (Molecular Probes) in the presence of 0.025% (w/v) pluronic F127 (Sigma-Aldrich) in Media 199 (Mediatech) for 30 minutes. […] The ratio of fluorescence intensity at the two excitation wavelengths was calculated after subtracting background fluorescence. [Ca2+]I (cytosolic free calcium concentration) was calculated using a Fura-2 calcium imaging calibration kit (Invitrogen). Images were collected and analyzed using the MetaFluor software package (Universal Imaging Corp.). Graphs represent average responses from groups of 30-40 individual cells from representative single experiments. Bar graphs represent average responses (fold over average baseline) from 150-200 cells per condition. All experiments were repeated at least three times with similar results.

[13] = system: InsP3R1, InsP3R2 and InsP3R3; assay: InsP3R phosphorylation in hepatocytes (phospho-substrate antiserum immunoblot); assay type: cell-based, mouse; settings: phospho-AKT substrate antiserum

CC(=O)OCOC(=O)CN(CC(=O)OCOC(C)=O)c1ccccc1OCCOc1ccccc1N(CC(=O)OCOC(C)=O)CC(=O)OCOC(C)=O [BAPTA-AM, 1,2-bis[2-aminophenoxy]ethane-N,N,N′,N′-tetraacetic acid tetrakis[acetoxymethyl ester]]
PKA-mediated phosphorylation of CREB in response to glucagon [1]: did not block | glucagon-induced CaMKII phosphorylation ([2]; HCs pre-treated with inhibitor, then glucagon): markedly decreased | glucagon-induced dephosphorylation (and nuclear translocation) of CRTC2 [3]: disrupted | CRE-luciferase (luc) reporter activity / activation [4]: disrupted

O=C1NCCc2[nH]c(-c3ccnc(-c4cnc5ccccc5c4)c3)cc21 [MK2 inhibitor, 2-(2-Quinolin-3-ylpyridin-4-yl)-1,5,6,7-tetrahydro-4H-pyrrolo-[3,2-c]pyridin-4-one]
nuclear FoxO1 and induction of genes involved in hepatic glucose production ([5]; 2 uM MK-2 inhibitor, glucagon 100 nm 5 h (FIG. 53)): importance of MK2 in both nuclear FoxO1 and in induction of genes

Oc1ccc(-c2nc(-c3ccncc3)c(-c3ccc(F)cc3)[nH]2)cc1 [SB202190]
expression of G6pc and Pck1 ([5]; glucagon-stimulated HC): blocked | nuclear FoxO1 in liver as a function of p38 inhibition (p-MK2) [6]: clear decrease | nuclear GFP-FoxO1 [7]: decreased

C[S+]([O-])c1ccc(-c2nc(-c3ccncc3)c(-c3ccc(F)cc3)[nH]2)cc1 (stereo not drawn) [SB203580]
inhibition of JNK [8]: does not significantly inhibit | inhibition of p42 MAP kinase [9]: does not significantly inhibit

N#CC(=C(/N)Sc1ccccc1N)/C(C#N)=C(\N)Sc1ccccc1N [U0126]
p-CaMKII [10]: increase

C1CNC1 [azetidine]
p-CaMKIIγ in HCs ([2]; ER stress activation): increased

C=C[C@@]1(C)CC(=O)[C@]2(O)[C@@]3(C)[C@@H](O)CCC(C)(C)[C@@H]3[C@H](O)[C@H](OC(C)=O)[C@@]2(C)O1 [forskolin]
G6pc mRNA, untreated WT HCs lower than forskolin-treated WT HCs ([5]; forskolin 10 μM): ~165 fold | Pck1 mRNA, untreated WT HCs lower than forskolin-treated WT HCs ([5]; forskolin 10 μM): ~2500 fold

C=C1[C@@H](O)[C@@H]2O[C@]3(CC[C@H](/C=C/[C@@H](C)[C@@H]4CC(C)=C[C@@]5(O[C@H](C[C@@](C)(O)C(=O)O)CC[C@H]5O)O4)O3)CC[C@H]2O[C@@H]1[C@@H](O)C[C@H](C)[C@H]1O[C@@]2(CCCCO2)CC[C@H]1C [okadaic acid]
glucagon-induced dephosphorylation (and nuclear translocation) of CRTC2 [3]: did not

insulin: hormone
glucagon-dependent increases in calcineurin activation [11]: reduced | glucagon-dependent increases in calcium mobilization [12]: reduced | InsP3R phosphorylation [13]: increased
